Assays:
NS1 = assay type: cell-based, influenza virus
mRNA export block = assay type: cell-based
A/WSN/1933 = assay type: cell-based, influenza virus
VSV-GFP (Indiana strain) = assay type: cell-based, vesicular stomatitis virus
HBECs = test: Measurements of cellular UMP, UDP and UTP levels by LC-MS/MS; assay type: cell-based, human; settings: HBECs treated with compound
VSV M protein = assay type: cell-based, vesicular stomatitis virus

SMILES	reversal of NS1 inhibition of host gene expression (luciferase activity) (NS1)	poly(A)+ RNA distribution in influenza virus-infected cells (mRNA export block)	antiviral effect on influenza virus (A/WSN/1933)	antiviral effect on VSV (VSV-GFP (Indiana strain))	influenza virus replication (A/WSN/1933)	VSV replication (VSV-GFP (Indiana strain))	UMP and UDP pools (HBECs)	UTP levels (HBECs)	NS1-mediated mRNA export block in absence of virus (mRNA export block)	inhibition of gene expression by M protein (VSV M protein)	cytotoxicity (MDCK cells)
CCOc1ccc(-c2cc(C(=O)O)c3cc(Cl)ccc3n2)cc1 [Compound 1, 6-chloro-2-(4-ethoxyphenyl)quinoline-4-carboxylic acid]	reverted the inhibition of host gene expression by NS1	normal distribution of mRNA in the nucleus and in the cytoplasm	–	–	–	–	–	–	–	–	–
Cc1ccc(-c2cc(C(=O)O)c3cc(Cl)ccc3n2)cc1 [Compound 1-10, 6-chloro-2-p-tolylquinoline-4-carboxylic acid]	–	–	no antiviral effect	no antiviral effect	–	–	–	–	–	–	–
O=C(O)c1cc(-c2ccc(Oc3ccccc3)cc2)nc2ccc(F)cc12 [Compound 1-14, 6-fluoro-2-(4-phenoxyphenyl)quinoline-4-carboxylic acid]	reverted	normal distribution of mRNA in the nucleus and in the cytoplasm	–	–	virus replication was inhibited	down-regulated	down-regulated to a lesser extent	reduced UTP levels	released	reverted	not cytotoxic
